In patent US20170267667A1, “[…] AS NON-NUCLEOSIDE REVERSE TRANSCRIPTASE INHIBITORS FOR ANTI-HIV-1 CHEMOTHERAPY” (Purdue Research Foundation, priority 2016, published 2017):

What was measured:
[1] = Cytotoxicity for mock-infected MT-4 cells; assay type: cell-based; conditions: human
Method: (§1) In Vitro Antiviral Assay. Evaluation of the antiviral activity of compounds against HIV- 1RF infection in CEM-SS cells was performed using the XTT cytoprotection assay, as previously described (Buckheit, R. W. Jr., et al., Antiviral Res. 1995, 26, 117-132). Evaluation of the antiviral activity of compounds against HIV-1IIIB and HIV-2ROD in MT-4 cells was performed using the MTT assay, as previously described (Rice, W. G. and Bader, J. P., Adv. Pharmacol. (San Diego) 1995, 33, 389-438).
(§2) Biological Results. The antiviral activities of the ADAMs were evaluated by determining their ability to inhibit the enzymatic activity of HIV-1 RT in vitro (IC50) and protect HIV-infected cells from the cytopathic effects (EC50) of two viral strains (HIV-1RF and HIV-1IIIB). The cytotoxicities (CC50) of the ADAMs were determined on CEM-SS cells and MT-4 cells.

[2] = tested on: HIV-1IIIB; experiment: MTT assay, HIV-1IIIB in MT-4 cells; assay type: cell-based; conditions: for SI (CC50/EC50) MT-4 cells: CC50/EC50 ratio, HIV-1IIIB in MT-4 cells; for EC50: Human immunodeficiency virus 1, MT4, inhibition of cytopathicity of HIV-1IIIB in MT-4 cells
Method: as §1

[3] = tested on: HIV-1RF; experiment: XTT cytoprotection assay, HIV-1RF infection in CEM-SS cells; assay type: cell-based; conditions: for SI (CC50/EC50) CEM-SS cells: CC50/EC50 ratio, HIV-1RF in CEM-SS cells; for EC50: Human immunodeficiency virus 1, inhibition of cytopathicity of HIV-1RF in CEM-SS cells
Method: as §1

[4] = molecular target: HIV-1 reverse transcriptase (Human immunodeficiency virus type 1 group M subtype B, UniProt P04585); experiment: RT inhibition assay, incorporation of [32P]GTP into poly(rC)/oligo(dG) template primer; assay type: biochemical; conditions: poly(rC):oligo(dG) as the template primer; mean of at least two experiments; read-out: IC50 inhibitory activity versus HIV-1 reverse transcriptase
Method: RT Inhibition Assay. Inhibition of purified recombinant reverse transcriptase was measured by the incorporation of [^32P]GTP into poly(rC)/oligo(dG) homopolymer template primers, as previously described (Cushman, M., et al., J. Med. Chem. 1996, 39, 3217-3227).

[5] = Cytotoxicity for mock-infected CEM-SS cells; assay type: cell-based; conditions: human
Method: as §1, §2

Compound | CC50 [1] [µM] | SI (CC50/EC50) MT-4 cells [2] | EC50 [2] [µM] | SI (CC50/EC50) CEM-SS cells [3] | EC50 [3] [µM] | IC50 [4] [µM] | CC50 [5] [µM]
CON=C(Cl)c1cc(/C(=C\CCCc2nnc(C)o2)c2ccc(C#N)cc2)cc(C)c1OC [ADAM 23, 5-[(1Z)-1-(4-Cyanophenyl)-5-(5-methyl-1,3,4-oxadiazol-2-yl)pent-1-en-1-yl]-N,2-dimethoxy-3-methylbenzenecarboximidoyl Chloride] | 30.2 | 8 | 3.64 | 7 | 2.6 | 32.5 | 18.1
CON=C(Cl)c1cc(/C(=C\CCCc2nc(C)no2)c2ccc(C#N)cc2)cc(C)c1OC [ADAM 24, 5-[(1Z)-1-(4-Cyanophenyl)-5-(3-methyl-1,2,4-oxadiazol-5-yl)pent-1-en-1-yl]-N,2-dimethoxy-3-methylbenzenecarboximidoyl Chloride] | 97.5 | 35 | 2.75 | 7 | 2.52 | 0.1 | 16.9
CON=C(Cl)c1cc(/C(=C\CCCN2CCOC2=O)c2ccc(C#N)cc2)cc(C)c1OC [ADAM 25, 5-[(1Z)-1-(4-Cyanophenyl)-5-(2-oxo-1,3-oxazolidin-3-yl)pent-1-en-1-yl]-N,2-dimethoxy-3-methylbenzenecarboximidoyl Chloride] | 6.48 | – | > 6.48 | – | > 100 | 42.1 | 6.48
CO/N=C(\Cl)CCC/C=C(\c1cc(C)c(OC)c(C(=O)SC)c1)c1cc(C)c2oc(=O)n(C)c2c1 [ADAM 26, S-Methyl 5-[(1E,6Z)-6-Chloro-1-(3,7-dimethyl-2-oxo-2,3-dihydro-1,3-benzoxazol-5-yl)-6-(methoxyimino)hex-1-en-1-yl]-2-methoxy-3-methylbenzenecarbothioate] | 59 | 109 | 0.54 | >23 | < 0.32 | 3.4 | 7.45
CO/N=C(\Cl)CCC/C=C(\c1cc(C)c(OC)c(C(=O)SC)c1)c1cc(C)c2onc(OC)c2c1 [ADAM 27, S-Methyl 5-[(1Z,6Z)-6-Chloro-6-(methoxyimino)-1-(3-methoxy-7-methyl-1,2-benzoxazol-5-yl)hex-1-en-1-yl]-2-methoxy-3-methylbenzenecarbothioate] | 16.3 | 5 | 3.27 | 3 | 2.42 | 36.4 | 7.2
CO/N=C(\Cl)CCC/C=C(/c1cccc(C#N)c1)c1cc(C)c(OC)c(C(=O)SC)c1 [ADAM 28, S-Methyl 5-[(1Z,6Z)-6-Chloro-1-(3-cyanophenyl)-6-(methoxyimino)hex-1-en-1-yl]-2-methoxy-3-methylbenzenecarbothioate] | 143 | 59 | 2.43 | 52 | 1.46 | 45.3 | 75.5
CO/N=C(\Cl)CCC/C=C(/c1ccc(C#N)cc1)c1cc(C)c(OC)c(C(=O)SC)c1 [ADAM 29, S-Methyl 5-[(1Z,6Z)-6-Chloro-1-(4-cyanophenyl)-6-(methoxyimino)hex-1-en-1-yl]-2-methoxy-3-methylbenzenecarbothioate] | 109 | 33 | 3.26 | 25 | 2.29 | 12 | 56.5
